From the NIST ThermoML archive (doi:10.1021/je060271a)
Several values for one entry are separate records, joined by “and”; a condition that tells them apart may be missing. Equal values may be shown once.

Settings: 323.16 K, Liquid, Vibrating tube method

CCCCCC(=O)OCC(COC(=O)CCCCC)(COC(=O)CCCCC)COC(=O)CCCCC [pentaerythritol tetrahexanoate]
Settings | mass density
16338 kPa | 983.8 kg/m3 and 983.7 kg/m3
16340 kPa | 983.7 kg/m3
16341 kPa | 983.7 kg/m3 and 983.8 kg/m3
16342 kPa | 983.8 kg/m3 and 983.7 kg/m3
16347 kPa | 983.6 kg/m3
16370 kPa | 983.7 kg/m3
16396 kPa | 983.7 kg/m3
16427 kPa | 983.7 kg/m3
16452 kPa | 983.7 kg/m3
16482 kPa | 983.8 kg/m3
16510 kPa | 983.8 kg/m3
16538 kPa | 983.8 kg/m3
16562 kPa | 983.9 kg/m3
16590 kPa | 983.8 kg/m3
16620 kPa | 983.9 kg/m3
16644 kPa | 983.9 kg/m3
16673 kPa | 984 kg/m3
16702 kPa | 984.1 kg/m3
16730 kPa | 984 kg/m3
16755 kPa | 984 kg/m3
16784 kPa | 984 kg/m3
16815 kPa | 984 kg/m3
16841 kPa | 984 kg/m3
16870 kPa | 984.1 kg/m3
16900 kPa | 984.1 kg/m3
16925 kPa | 984.2 kg/m3
16955 kPa | 984.2 kg/m3
16986 kPa | 984.2 kg/m3
17011 kPa | 984.1 kg/m3
17041 kPa | 984.2 kg/m3
17072 kPa | 984.1 kg/m3
17102 kPa | 984.2 kg/m3
17128 kPa | 984.2 kg/m3
17159 kPa | 984.3 kg/m3
17192 kPa | 984.3 kg/m3
17216 kPa | 984.4 kg/m3
17248 kPa | 984.3 kg/m3
17278 kPa | 984.4 kg/m3
17303 kPa | 984.4 kg/m3
17334 kPa | 984.3 kg/m3
17365 kPa | 984.4 kg/m3
17396 kPa | 984.4 kg/m3
17427 kPa | 984.3 kg/m3
17452 kPa | 984.4 kg/m3
17481 kPa | 984.4 kg/m3
17510 kPa | 984.4 kg/m3
17540 kPa | 984.5 kg/m3
17565 kPa | 984.5 kg/m3
17594 kPa | 984.6 kg/m3
17623 kPa | 984.6 kg/m3
17652 kPa | 984.7 kg/m3
17682 kPa | 984.5 kg/m3
17706 kPa | 984.6 kg/m3
17736 kPa | 984.6 kg/m3
17766 kPa | 984.7 kg/m3
17796 kPa | 984.7 kg/m3
17826 kPa | 984.6 kg/m3
17852 kPa | 984.7 kg/m3
17882 kPa | 984.9 kg/m3
17913 kPa | 984.8 kg/m3
17940 kPa | 984.8 kg/m3
17970 kPa | 984.8 kg/m3
18001 kPa | 984.8 kg/m3
18032 kPa | 984.8 kg/m3
18058 kPa | 984.9 kg/m3
18088 kPa | 984.8 kg/m3
18119 kPa | 984.8 kg/m3
18145 kPa | 984.9 kg/m3
18174 kPa | 984.9 kg/m3
18203 kPa | 985 kg/m3
18231 kPa | 984.9 kg/m3
18260 kPa | 984.9 kg/m3
18284 kPa | 985 kg/m3
18312 kPa | 984.8 kg/m3
18341 kPa | 985 kg/m3
18370 kPa | 985 kg/m3
18394 kPa | 985 kg/m3
18423 kPa | 985 kg/m3
18452 kPa | 985.1 kg/m3
18481 kPa | 985.1 kg/m3
18510 kPa | 985.1 kg/m3
18540 kPa | 985 kg/m3
18565 kPa | 985.1 kg/m3
18594 kPa | 985.2 kg/m3
18624 kPa | 985.2 kg/m3
18649 kPa | 985.2 kg/m3
18679 kPa | 985.1 kg/m3
18709 kPa | 985.2 kg/m3
18737 kPa | 985.2 kg/m3
18761 kPa | 985.2 kg/m3
18789 kPa | 985.3 kg/m3
18818 kPa | 985.2 kg/m3
18846 kPa | 985.2 kg/m3
18876 kPa | 985.4 kg/m3
18900 kPa | 985.4 kg/m3
18928 kPa | 985.4 kg/m3
18958 kPa | 985.4 kg/m3
18987 kPa | 985.5 kg/m3
19017 kPa | 985.5 kg/m3
19042 kPa | 985.4 kg/m3
19071 kPa | 985.4 kg/m3
19100 kPa | 985.6 kg/m3
19129 kPa | 985.6 kg/m3
19380 kPa | 985.8 kg/m3
19405 kPa | 985.5 kg/m3
19434 kPa | 985.7 kg/m3
19458 kPa | 985.7 kg/m3
19486 kPa | 985.6 kg/m3
19516 kPa | 985.7 kg/m3
19545 kPa | 985.8 kg/m3
19574 kPa | 985.7 kg/m3
19599 kPa | 985.9 kg/m3
19628 kPa | 985.9 kg/m3
19658 kPa | 985.9 kg/m3
19688 kPa | 985.9 kg/m3
19718 kPa | 985.8 kg/m3
19746 kPa | 986 kg/m3
19776 kPa | 986 kg/m3
19801 kPa | 985.9 kg/m3
19830 kPa | 986 kg/m3
19861 kPa | 986 kg/m3
19891 kPa | 986.1 kg/m3
19922 kPa | 985.9 kg/m3
19952 kPa | 986 kg/m3
19978 kPa | 986 kg/m3
20009 kPa | 986 kg/m3
20040 kPa | 986.1 kg/m3
20067 kPa | 986.1 kg/m3
20098 kPa | 986.2 kg/m3
20130 kPa | 986.1 kg/m3
20162 kPa | 986.2 kg/m3
20188 kPa | 986.1 kg/m3
20219 kPa | 986.2 kg/m3
20251 kPa | 986.1 kg/m3
20282 kPa | 986.3 kg/m3
20314 kPa | 986.1 kg/m3
20339 kPa | 986.2 kg/m3
20396 kPa | 986.2 kg/m3
20449 kPa | 986.4 kg/m3
20477 kPa | 986.4 kg/m3
20506 kPa | 986.4 kg/m3
20535 kPa | 986.4 kg/m3
20558 kPa | 986.3 kg/m3
20587 kPa | 986.4 kg/m3
